Experimental data from patent publication US5420261A, “Glycosides of 3'-deoxyaquayamycin antibiotics” (Schering Corporation, priority 1992, dated 1995).
Values after ≈ are worked out from the molar mass of the structure shown. Where two headings read alike, the source gives them in different places.

Key:
Candida (8 species) = assay: In vitro antifungal activity in Sabouraud dextrose broth, Candida (8 species); assay type: cell-based; conditions: read-out: GEOMETRIC MEAN MIC
[1] = system: Dermatophytes (seven species); assay: In vitro antifungal activity in Sabouraud dextrose broth, dermatophytes (seven species); assay type: cell-based; conditions: read-out: GEOMETRIC MEAN MIC
Mycelial = assay: In vitro activity in Eagles Medium Essential Medium (EMEM), Mycelial; assay type: cell-based; conditions: read-out: GEOMETRIC MEAN MIC
S. aureus = assay: Bioautography after thin layer chromatography, S. aureus; assay type: cell-based; conditions: TLC in 2:2:1 chloroform: methanol: pH 3.5 acetate buffer
Description: (§1) The medium employed for the fermentation contained beef extract, tryptone, yeast extract, cerelose and soluble starch as the major sources of nitrogen and carbon, respectively.

E. coli = assay: Bioautography after thin layer chromatography, E. coli; assay type: cell-based; conditions: TLC in 2:2:1 chloroform: methanol: pH 3.5 acetate buffer
Description: as §1

C. abicans = assay: Bioautography after thin layer chromatography, C. abicans; assay type: cell-based; conditions: TLC in 2:2:1 chloroform: methanol: pH 3.5 acetate buffer
Description: as §1

Solubility = assay type: physicochemical
[2] = Sabouraud Dextrose Broth Medium, Candida (8 species)
[3] = Sabouraud Dextrose Broth Medium, Dermatophytes (seven species)

SMILES | MIC (Candida (8 species); Candida) | MIC [1] | MIC (Mycelial) | MIC (Candida (8 species); [2]) | MIC [1, 3] | biological activity by bioautography (S. aureus) | biological activity by bioautography (E. coli) | biological activity by bioautography (C. abicans) | solubility in dichlormethane, chloroform and dimethyl sulfoxide (Solubility) | solubility in hexane and water (Solubility) | solubility in methanol, diethyl ether and ethyl acetate (Solubility)
COc1cccc2c1C(=O)c1c(O)c3c(c(O)c1C2=O)C[C@@](O)(C(=O)CO)C[C@@H]3O[C@H]1C[C@H](N)[C@H](O)[C@H](C)O1 [Adriamycin, reference compound] | ≥ 128 µg/mL | ≥ 128 µg/mL | 128 µg/mL (≈ 235 µM) |  |  |  |  |  |  |  | 
CC1OC(OC2CCC(c3ccc4c(c3O)C(=O)C3=C(C4=O)C4(O)C(=O)CC(C)(OC5C=CC(=O)C(C)O5)CC4(O)C=C3)OC2C)C=CC1=O (stereo not drawn) [Compound 1a] |  |  | 78 µg/mL (≈ 113 µM) | ≥ 43 µg/mL | ≥ 5 µg/mL | biologically active | biologically active | biologically active | soluble in dichlormethane, chloroform and dimethyl sulfoxide | insoluble in hexane and water | less soluble in methanol, diethyl ether and ethyl acetate
CC1OC(OC2(C)CC(=O)C3(O)C4=C(C=CC3(O)C2)C(=O)c2c(ccc(C3CCC(OC5CCC(O)C(C)O5)C(C)O3)c2O)C4=O)C=CC1=O (stereo not drawn) [Compound 1b] |  |  | 95 µg/mL (≈ 137 µM) | ≥ 128 µg/mL | ≥ 132 µg/mL | biologically active | biologically active | biologically active | soluble in dichlormethane, chloroform and dimethyl sulfoxide | insoluble in hexane and water | less soluble in methanol, diethyl ether and ethyl acetate
